Results reported in the NIST ThermoML archive (doi:10.1016/j.jct.2019.04.018).

Test: xn = mol fraction of the nth substance listed
Conditions: 100 kPa, Liquid; for viscosity: Capillary tube (Ostwald / Ubbelohde) method; for speed of sound: Frequency=2 MHz, Single path-length method; for mass density: Vibrating tube method

C=COCCCC [1-(ethenyloxy)butane] + C=COC(C)=O
Conditions	mass density, 303.15 K [kg/m3]	mass density, 308.15 K [kg/m3]	mass density, 313.15 K [kg/m3]	speed of sound, 303.15 K [m/s]	speed of sound, 308.15 K [m/s]	speed of sound, 313.15 K [m/s]	viscosity, 303.15 K [mPa·s]	viscosity, 308.15 K [mPa·s]	viscosity, 313.15 K [mPa·s]
x2 = 0	769	763.9	758.8	1086	1076	1066	0.386	0.373	0.352
x2 = 0.1022	779.6	774.4	769.1	1086	1076	1066	0.385	0.368	0.35
x2 = 0.2014	790.7	785.4	780	1086	1076	1065	0.381	0.364	0.344
x2 = 0.2948	801.9	796.5	791	1087	1075	1064	0.377	0.36	0.339
x2 = 0.4002	815.6	810	804.4	1087	1075	1064	0.374	0.357	0.338
x2 = 0.502	829.9	824.1	818.3	1087	1074	1062	0.372	0.355	0.336
x2 = 0.5997	844.6	838.7	832.8	1088	1074	1062	0.373	0.357	0.337
x2 = 0.6979	860.6	854.5	848.4	1088	1074	1061	0.375	0.358	0.338
x2 = 0.7949	877.7	871.6	865.3	1089	1074	1059	0.378	0.36	0.341
x2 = 0.8999	898	891.9	885.5	1090	1074	1057	0.383	0.365	0.346

C=COC(C)=O [vinyl acetate] + CCCCOCCCC
Conditions	mass density, 303.15 K [kg/m3]	mass density, 308.15 K [kg/m3]	mass density, 313.15 K [kg/m3]	speed of sound, 303.15 K [m/s]	speed of sound, 308.15 K [m/s]	speed of sound, 313.15 K [m/s]	viscosity, 303.15 K [mPa·s]	viscosity, 308.15 K [mPa·s]	viscosity, 313.15 K [mPa·s]
x1 = 0.0956	767.4	763	758.2	1141	1123	1107	0.575	0.54	0.509
x1 = 0.1922	776.2	771.6	767	1136	1118	1100	0.549	0.517	0.489
x1 = 0.3008	787.4	782.6	777.8	1131	1112	1093	0.522	0.493	0.467
x1 = 0.3962	798.4	793.5	788.5	1126	1107	1087	0.499	0.472	0.447
x1 = 0.5008	812.2	807.1	801.9	1120	1102	1080	0.476	0.451	0.427
x1 = 0.5997	827.4	822	816.6	1115	1096	1074	0.455	0.431	0.409
x1 = 0.6995	845	839.4	833.7	1110	1091	1068	0.436	0.414	0.393
x1 = 0.7995	865.6	859.8	853.8	1104	1085	1063	0.417	0.398	0.379
x1 = 0.8998	890	883.8	877.6	1099	1080	1058	0.401	0.383	0.365
x1 = 1	919.4	913.5	907.3	1092	1074	1054	0.388	0.37	0.352

C=COC(C)=O [vinyl acetate] + CC(C)OC(C)C
Conditions	mass density, 303.15 K [kg/m3]	mass density, 308.15 K [kg/m3]	mass density, 313.15 K [kg/m3]	speed of sound, 303.15 K [m/s]	speed of sound, 308.15 K [m/s]	speed of sound, 313.15 K [m/s]	viscosity, 303.15 K [mPa·s]	viscosity, 308.15 K [mPa·s]	viscosity, 313.15 K [mPa·s]
x1 = 0.1031	727.4	722.1	716.5	990	970	948	0.308	0.293	0.28
x1 = 0.1977	741.4	736	730.4	996	976	955	0.313	0.297	0.284
x1 = 0.3004	757.8	752.3	746.6	1004	985	964	0.318	0.302	0.288
x1 = 0.4002	775	769.4	763.7	1013	993	972	0.324	0.307	0.294
x1 = 0.5001	793.8	788.1	782.3	1022	1002	982	0.33	0.313	0.299
x1 = 0.6027	814.8	809.1	803.2	1032	1012	992	0.338	0.32	0.306
x1 = 0.7001	836.9	831	825	1042	1024	1003	0.347	0.329	0.313
x1 = 0.801	861.9	856	849.8	1056	1038	1016	0.359	0.34	0.323
x1 = 0.9014	889.5	883.5	877.2	1072	1053	1032	0.372	0.353	0.335
x1 = 1	919.4	913.5	907.3	1092	1074	1054	0.388	0.37	0.352

C=COC(C)=O [vinyl acetate] + COc1ccccc1
Conditions	mass density, 303.15 K [kg/m3]	mass density, 308.15 K [kg/m3]	mass density, 313.15 K [kg/m3]	speed of sound, 303.15 K [m/s]	speed of sound, 308.15 K [m/s]	speed of sound, 313.15 K [m/s]	viscosity, 303.15 K [mPa·s]	viscosity, 308.15 K [mPa·s]	viscosity, 313.15 K [mPa·s]
x1 = 0.0981	979.4	974.6	969.5	1350	1329	1310	0.843	0.775	0.724
x1 = 0.199	974	969	963.8	1316	1294	1274	0.766	0.708	0.664
x1 = 0.3015	968.3	963.1	957.8	1283	1260	1239	0.696	0.647	0.609
x1 = 0.3972	962.6	957.4	951.9	1253	1230	1208	0.638	0.595	0.562
x1 = 0.5005	956.2	950.8	945.2	1223	1199	1177	0.583	0.546	0.515
x1 = 0.5979	949.8	944.2	938.5	1194	1171	1150	0.535	0.503	0.476
x1 = 0.6988	942.8	937	931.1	1167	1144	1122	0.492	0.464	0.439
x1 = 0.8029	935.1	929.2	923.1	1139	1118	1096	0.451	0.427	0.406
x1 = 0.9005	927.5	921.5	915.3	1115	1095	1074	0.418	0.397	0.377
x1 = 1	919.4	913.5	907.3	1092	1074	1054	0.388	0.37	0.352
